Assay results published in US4559323A, “A41030 Antibiotics” (Eli Lilly and Company, priority 1984, dated 1985).
In brackets after ≈: the same amount, converted by molar mass.

Assays:
Neisseria sp. = test: Agar-dilution MIC; assay type: cell-based; conditions: Table 10
Protocol: The test results are recorded in Table 10, which follows.

Streptococcus pyogenes = test: Agar-dilution MIC; assay type: cell-based
From the text: (§1) The agar-dilution procedure described by the International Collaborative study (ICS) group was used to determine the minimum inhibitory concentrations (MIC's).

[1] = tested on: Streptococcus sp. (Group D); test: Agar-dilution MIC; assay type: cell-based
From the text: as §1

Viridans streptococcus = test: Agar-dilution MIC; assay type: cell-based; conditions: Table 11
Shigella flexneri = conditions: Table 11; Shigella flexneri SH-4
From the text: as §1

Bacteroides fragilis = test: Agar-dilution MIC (anaerobes); assay type: cell-based
From the text: as §1

Escherichia coli = test: Agar-dilution MIC; assay type: cell-based; conditions: Table 17; 24 hours; Escherichia coli EC14
[2] = tested on: Streptococcus sp. Group B; test: Agar-dilution MIC; assay type: cell-based; conditions: Table 18, 24 hours
From the text: The in vitro activity of antibiotic A41030 factors A and B against a number of representative aerobic, gram-positive bacteria, including Streptococcus sp. Group D, has been determined using a standard agar-dilution assay.

[3] = tested on: Haemophilus parainfluenzae; test: Agar-dilution MIC; assay type: cell-based; conditions: Table 18, 24 hours
Staphylococcus aureus = test: Disc-plate sensitivity procedure; assay type: cell-based; conditions: Table 8
Escherichia coli EC14 = test: Disc-plate sensitivity procedure; assay type: cell-based
[4] = mice, administered intraperitoneally
pseudorabies = conditions: in vitro at 20 mcg./ml.

NC1C(=O)NC2Cc3ccc(c(Cl)c3)Oc3cc4cc(c3O)Oc3ccc(cc3Cl)C(O)C3NC(=O)C(NC(=O)C4NC(=O)C(NC2=O)c2cc(O)cc(c2)Oc2cc1ccc2O)c1cc(Cl)c(O)c(c1)-c1c(O)cc(O)cc1C(C(=O)O)NC3=O (centres unmarked) [A41030 factor A]
MIC (Neisseria sp.; strain L. Nance): 4.0 µg/mL (≈ 3.24 µM)
MIC (Neisseria sp.; strain Mitchell): 4.0 µg/mL (≈ 3.24 µM)
MIC (Neisseria sp.; strain Sanders): 1.0 µg/mL (≈ 0.811 µM)
MIC (Neisseria sp.; strain Schultz): 8.0 µg/mL (≈ 6.49 µM)
MIC (Neisseria sp.; strain Woods): 4.0 µg/mL (≈ 3.24 µM)
MIC (Streptococcus pyogenes; Table 11, S. pyogenes 9943): 0.25 µg/mL (≈ 0.203 µM)
MIC (Streptococcus pyogenes; Table 11, S. pyogenes 10389): 0.25 µg/mL (≈ 0.203 µM)
MIC (Streptococcus pyogenes; Table 11, S. pyogenes 12344): 0.5 µg/mL (≈ 0.405 µM)
MIC (Streptococcus pyogenes; Table 11, S. pyogenes C203): 0.25 µg/mL (≈ 0.203 µM)
MIC (Streptococcus pyogenes; Table 11, S. pyogenes M-6517): 0.25 µg/mL (≈ 0.203 µM)
MIC (Streptococcus pyogenes; Table 17, 24 hours, Streptococcus pyogenes C203): 0.5 µg/mL (≈ 0.405 µM)
MIC (Streptococcus pyogenes; Table 18, 24 hours, Streptococcus pyogenes C203): 0.25 µg/mL (≈ 0.203 µM)
MIC ([1]; Table 11, Streptococcus sp. (Group D) 238): 0.25 µg/mL (≈ 0.203 µM)
MIC ([1]; Table 11, Streptococcus sp. (Group D) 282): 0.25 µg/mL (≈ 0.203 µM)
MIC ([1]; Table 11, Streptococcus sp. (Group D) 9901): 0.25 µg/mL (≈ 0.203 µM)
MIC ([1]; Table 11, Streptococcus sp. (Group D) 12253F): 0.25 µg/mL (≈ 0.203 µM)
MIC ([1]; Table 11, Streptococcus sp. (Group D) Guze): 0.25 µg/mL (≈ 0.203 µM)
MIC ([1]; Table 17, 24 hours, Streptococcus sp. Group D 9960): 2 µg/mL (≈ 1.62 µM)
MIC ([1]; Table 17, 24 hours, Streptococcus sp. Group D X66): 1 µg/mL (≈ 0.811 µM)
MIC ([1]; Table 18, 24 hours, Streptococcus sp. Group D 2041): 0.5 µg/mL (≈ 0.405 µM)
MIC ([1]; Table 18, 24 hours, Streptococcus sp. Group D 2058): 0.5 µg/mL (≈ 0.405 µM)
MIC ([1]; Table 18, 24 hours, Streptococcus sp. Group D 8043): 0.25 µg/mL (≈ 0.203 µM)
MIC ([1]; Table 18, 24 hours, Streptococcus sp. Group D 9901): 1 µg/mL (≈ 0.811 µM)
MIC ([1]; Table 18, 24 hours, Streptococcus sp. Group D 9960): 0.5 µg/mL (≈ 0.405 µM)
MIC ([1]; Table 18, 24 hours, Streptococcus sp. Group D 12253F): 0.25 µg/mL (≈ 0.203 µM)
MIC ([1]; Table 18, 24 hours, Streptococcus sp. Group D Mx161): 0.25 µg/mL (≈ 0.203 µM)
MIC ([1]; Table 18, 24 hours, Streptococcus sp. Group D X66): 0.25 µg/mL (≈ 0.203 µM)
MIC (Viridans streptococcus; Viridans streptococcus SM-1134): 0.5 µg/mL (≈ 0.405 µM)
MIC (Viridans streptococcus; Viridans streptococcus SSI-910): 0.25 µg/mL (≈ 0.203 µM)
MIC (Viridans streptococcus; Viridans streptococcus SSII-895): 0.25 µg/mL (≈ 0.203 µM)
MIC (Shigella flexneri): 64 µg/mL (≈ 51.9 µM)
MIC (Bacteroides fragilis; Table 12, 24-hour, B. fragilis 2): 64 µg/mL (≈ 51.9 µM)
MIC (Bacteroides fragilis; Table 12, 24-hour, B. fragilis 9): 64 µg/mL (≈ 51.9 µM)
MIC (Bacteroides fragilis; Table 12, 24-hour, B. fragilis 103): 32 µg/mL (≈ 25.9 µM)
MIC (Bacteroides fragilis; Table 12, 24-hour, B. fragilis 104): 32 µg/mL (≈ 25.9 µM)
MIC (Bacteroides fragilis; Table 12, 24-hour, B. fragilis 106): 64 µg/mL (≈ 51.9 µM)
MIC (Bacteroides fragilis; Table 12, 24-hour, B. fragilis 107): 32 µg/mL (≈ 25.9 µM)
MIC (Bacteroides fragilis; Table 12, 24-hour, B. fragilis 108): 32 µg/mL (≈ 25.9 µM)
MIC (Bacteroides fragilis; Table 12, 24-hour, B. fragilis 110): 64 µg/mL (≈ 51.9 µM)
MIC (Bacteroides fragilis; Table 12, 24-hour, B. fragilis 111): 32 µg/mL (≈ 25.9 µM)
MIC (Bacteroides fragilis; Table 12, 24-hour, B. fragilis 112): 64 µg/mL (≈ 51.9 µM)
MIC (Bacteroides fragilis; Table 12, 24-hour, B. fragilis 113): 32 µg/mL (≈ 25.9 µM)
MIC (Bacteroides fragilis; Table 12, 24-hour, B. fragilis 1451): 64 µg/mL (≈ 51.9 µM)
MIC (Bacteroides fragilis; Table 12, 24-hour, B. fragilis 1470): 64 µg/mL (≈ 51.9 µM)
MIC (Bacteroides fragilis; Table 12, 24-hour, B. fragilis 1877): 32 µg/mL (≈ 25.9 µM)
MIC (Bacteroides fragilis; Table 12, 24-hour, B. fragilis 9032): 64 µg/mL (≈ 51.9 µM)
MIC (Bacteroides fragilis; Table 14, Bacteroides fragilis 111): 128 µg/mL (≈ 104 µM)
MIC (Bacteroides fragilis; Table 14, Bacteroides fragilis 1877): 32 µg/mL (≈ 25.9 µM)
MIC (Bacteroides fragilis; Table 14, Bacteroides fragilis 1936B): 64 µg/mL (≈ 51.9 µM)
MIC (Escherichia coli): 128 µg/mL (≈ 104 µM)
MIC ([2]; Streptococcus sp. Group B 5): 1 µg/mL (≈ 0.811 µM)
MIC ([2]; Streptococcus sp. Group B 14): 0.06 µg/mL (≈ 0.0486 µM)
MIC ([3]; Haemophilus parainfluenzae 7901): 16 µg/mL (≈ 13 µM)
MIC ([3]; Haemophilus parainfluenzae 9796): 16 µg/mL (≈ 13 µM)
Zone diameter (Staphylococcus aureus; S. aureus 3055 benzylpenicillin-susceptible, 10 μg./disc): 17.2 mm
Zone diameter (Staphylococcus aureus; S. aureus 3055 benzylpenicillin-susceptible, 100 μg./disc): 20.8 mm
Zone diameter (Staphylococcus aureus; S. aureus 3074 benzylpenicillin-resistant, 10 μg./disc): 16.7 mm
Zone diameter (Staphylococcus aureus; S. aureus 3074 benzylpenicillin-resistant, 100 μg./disc): 19.8 mm
Zone diameter (Staphylococcus aureus; S. aureus 3130 benzylpenicillin- and methicillin-resistant, 10 μg./disc): 17.4 mm
Zone diameter (Staphylococcus aureus; S. aureus 3130 benzylpenicillin- and methicillin-resistant, 100 μg./disc): 21.4 mm
Zone diameter (Escherichia coli EC14; Table 8, 10 μg./disc): 0 mm
Zone diameter (Escherichia coli EC14; Table 8, 100 μg./disc): 8.0 mm
LD50 [4]: > 300 mg/kg
acute toxicity [4]: > 300 mg/kg
activity against pseudorabies (pseudorabies): shown activity
